Assay results taken from patent US12479816B2, “20-HETE formation inhibitors” (UNIVERSITY OF PITTSBURGH—OF THE COMMONWEALTH SYSTEM OF …, priority 2019, dated 2025).

What was measured:
[1] = test system: 20-HETE formation (CYP4) in HLM; test: Inhibition of 20-HETE formation at 250 or 500 nM in HLM microsomal incubations; assay type: biochemical, human; conditions: HLM 300 μg/ml, AA 100 μM, 20 min; for HLM % inh. @ 250 nM: 250 nM compound; for HLM % inh. @ 500 nM: 500 nM compound
Method in brief: (§1)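 Protein 300 μg/ml (microsomes) / 25 pmol/mL (rCYP4F2); AA 100 μM; NADPH 1 mM start; KPi 0.12 M + 5 mM MgCl2; 20 min, 37° C. Read-out: 20-HETE by UPLC-MS/MS (d6 IS), % of vehicle, n=3.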

[2] = HLM stability determination; assay type: in vitro ADME, human; conditions: HLM 500 μg/ml, 1 μM compound, NADPH, relative to 0 min
Protocol: HLM stability determinations shown in Table 3 were obtained as follows. Microsomal incubates contained HLM (500 μg/ml), test compounds (1 μM) and NADPH (1.3 mM) in a 1 ml total volume of microsomal incubation buffer (0.12 M potassium phosphate buffer containing 5 mM magnesium chloride). Reaction was started by adding NADPH to the incubates and was carried out at 37° C. in a shaking water bath for 60 min. At 0, 15, 30, 45, 60 min, a 50 μl aliquot of incubates was taken out and reaction was stopped by adding aliquot into 200 μl ice-cold acetonitrile. After centrifugation at 14000×g for 5 min, 200 μl supernatant was taken out for UPLC-MS/MS analysis as described above. Values at 0 min were used as corresponding control for test compounds. Varapamil, metoprolol, and warfarin, categorized as fast, moderate and slow metabolism, were used as positive control. Incubates without NADPH group served as negative control.

[3] = test system: 20-HETE formation (CYP4) in RKM; test: Inhibition of 20-HETE formation at 250 or 500 nM in RKM microsomal incubations; assay type: biochemical, rat; conditions: RKM 300 μg/ml; for RKM % inh. @ 250 nM: 250 nM compound; for RKM % inh. @ 500 nM: 500 nM compound
Method in brief: as §1

Compound	HLM % inh. @ 250 nM [1]	HLM % inh. @ 500 nM [1]	Stability HLM % @ 30 min [2]	RKM % inh. @ 250 nM [3]	RKM % inh. @ 500 nM [3]
c1ccc(C2CCN(c3cn[nH]c3)CC2)cc1 [Compound 1, 4-Phenyl-1-(1H-pyrazol-4-yl)piperidine]	64.29%	78.80%	100%	18.00%	
c1ccc(CC2CCN(c3cn[nH]c3)CC2)cc1 [Compound 3, 4-Benzyl-1-(1H-pyrazol-4-yl)piperidine]		77.30%	85%		0.00%
COc1ccc(C2CCN(c3ccn[nH]3)CC2)cc1 [Compound 19, 4-(4-Methoxyphenyl)-1-(1H-pyrazol-5-yl)piperidine]		72.30%	89%		0.00%
COc1ccc(C2CCN(c3cn[nH]c3)CC2)cc1 [Compound 20, 4-(4-Methoxyphenyl)-1-(1H-pyrazol-4-yl)piperidine]		73.10%	92%		4.90%
CC(=O)N(C)c1ccc(C2CCN(c3cn[nH]c3)CC2)cc1 [Compound 28, N-(4-(1-(1H-Pyrazol-4-yl)piperidin-4-yl)phenyl)-N-methylacetamide]		75.00%			43.00%
Cc1cccc(C2CCN(c3cn[nH]c3)CC2)c1 [Compound 34, 1-(1H-Pyrazol-4-yl)-4-(m-tolyl)piperidine]		80.00%			36.00%
c1ccc(C2CCN(c3ccn[nH]3)CC2)cc1 [Compound 54, 4-Phenyl-1-(1H-pyrazol-5-yl)piperidine]	31.60%	47.40%	91%	0.00%	
O=C1CCCN1Cc1ccc(C2CCN(c3cn[nH]c3)CC2)cc1 [Compound 83, 1-(4-(1-(1H-Pyrazol-4-yl)piperidin-4-yl)benzyl)pyrrolidin-2-one]		91.6%	91%		
Clc1ccc(CC2CCN(c3cn[nH]c3)CC2)cc1 [Compound 93, 4-(4-Chlorobenzyl)-1-(1H-pyrazol-4-yl)piperidine]		93.03%	85%		
O=C1CCCN1c1ccc(C2CCN(c3cn[nH]c3)CC2)cc1 [Compound 100, 1-(4-(1-(1H-Pyrazol-4-yl)piperidin-4-yl)phenyl)pyrrolidin-2-one]		76.1%	95%		
